Measured values from patent US12544382B2, “2, 4, 6-tri-substituted pyrimidine compound as ATR kinase inhibitor” (BEIJING TIDE PHARMACEUTICAL CO., LTD., priority 2019, dated 2026).

Legend:
[1] = In vitro liver microsomal stability assay, human; type: in vitro ADME; settings: human liver microsomes, final concentration 2.0 nM, with or without NADPH, within 60 minutes; read-out: Human liver microsomes t1/2
Method: (§1) Experiments on the stability of the compound of the present disclosure in liver microsomes were performed. The compounds to be tested (final concentration: 2.0 nM) were co-incubated with human/mouse liver microsomes with or without NADPH, and the concentration of compounds in the incubation supernatant was detected within 60 minutes.

[2] = target: ATR kinase (Homo sapiens (Human), UniProt Q13535); experiment: ATR kinase activity assay (time-resolved fluorescence, p53 substrate phosphorylation); type: biochemical
Method: Biotinylated protein derived from p53 (Eurofins, art. No.: 14-952) was phosphorylated with ATR kinase. The amount of phosphorylated protein was determined by time-resolved fluorescence in this assay. The amount of phosphorylated protein was detected by anti-p53-phospho-(serine 15)-K-specific antibody (Cisbio, art. No.: 61GSTDLA) and d2 labeled anti-GST antibody (Cisbio, art. No. 61P08KAE). Before the experiment, the following working solution was prepared as required: 1× reaction buffer (20 mM HEPES PH8.0, 1% glycerol, 0.01% Brij-35), dilution buffer (20 mM HEPES PH8.0, 1% glycerol, 0.01% Brij-35, 5 mM DTT and 1% BSA), stop solution (20 mM HEPES PH8.0, 1% glycerol, 0.01% Brij-35, 250 mM EDTA), detection buffer (50 mM HEPES pH7.0, 150 mM NaCl, 267 mM KF, 0.1% sodium cholate, 0.01% Tween-20, 0.0125% sodium azide). The reagents used above are purchased from Sigma or Invitrogen, except for those where the manufacturer was mentioned.
Operations are as follows:
4× gradient dilution of compound solutions was prepared with 1× reaction buffer to obtain 9 compound solutions of different concentrations, and 2.5 μL 4× gradient dilution of compound solutions was added to a 384-well analysis plate (784075, Greiner). 4× p53 substrate working solution (40 nM) was prepared with 1× reaction buffer, and 2.5 μL 4× p53 substrate working solution was added to the 384-well analysis plate. 4×ATR/ATRIP working solution (12.8 ng/μL) was prepared with dilution buffer, and 2.5 μL 4×pATR/ATRIP working solution was added to the 384-well analysis plate. 4×ATP working solution (2 mM) was prepared with deionized water, 2.5 μL 4×ATP working solution was added to the 384-well analysis plate, and incubated at room temperature in dark for 30 minutes. 5 μL stop solution was added to the 384 analysis plate. Finally, 5 μL test mixture (0.084 ng/μL Anti-phospho-p53(ser15)-K and 5 ng/μL Anti-GST-d2) was added to the 384 well analysis plate, incubated overnight at room temperature, and the fluorescence signal was detected with ENVISION (Perkinelmer) instrument (excitation wavelength: 320 nm, emission wavelength: 665 nm and 615 nm). The inhibition rate in each well was calculated by the fluorescence intensity value of each hole: ER (Emission Ratio)=(Fluorescence intensity at 665 nm/Fluorescence intensity at 615 nm); inhibition rate=(ER positive-ER test compound)/(ER positive-ER negative)×100%, the IC50 value of compounds were calculated by standard parameter fitting software (GraphPad Prism 6.0).

[3] = In vitro liver microsomal stability assay, mouse; type: in vitro ADME; settings: mouse liver microsomes, final concentration 2.0 nM, with or without NADPH, within 60 minutes; read-out: Mouse liver microsomes t1/2
Method: as §1

[4] = tested on: MV4-11 (leukemia) cells; experiment: In vitro cell proliferation inhibition assay (CellTiter-Glo), MV4-11; type: cell-based, human; settings: MV4-11 cells
Method: (§2) By detecting the effect of compound on cell activity in vitro in the tumor cell lines TOV21G (ovarian cancer) and MV4-11 (leukemia), the effect of compound inhibiting cell proliferation was studied in this assay.
(§3) TOV21G cells and MV4-11 cells were purchased from American Type Culture Collection (ATCC).
MV-4-11 cells were cultured in IMDM medium (containing 20% FBS), each well of a 96-well culture plate was inoculated with about 10000 cells, and treated with different concentrations (0-10 μM) of compounds to be tested in triplex. Blank wells (containing medium only) and control wells (inoculated with cells but not treated with drug) were set. Cells were cultured for 120 hours, 40 μL Cell Titer-Glo solution was added to each well, incubated with shaking for 20 min in the dark, 100 μL solution was transferred from each well to a 96-well white plate, and the luminescence value was read by Biotek Synergy H1 multifunctional microplate reader. Inhibition rate (%)=100%×(control well−test well)/(control well−blank well)

[5] = tested on: TOV21G (ovarian cancer) cells; experiment: In vitro cell proliferation inhibition assay (CellTiter-Glo), TOV21G; type: cell-based, human; settings: 120 hours
Method: as §2, §3
TOV21G cells were cultured in MCDB105/M199 medium (containing 15% […]), and used for testing when the cell confluence reaches 85% or more. Each well of a 96-well culture plate was inoculated with about 1000 cells, cultured for 24 hours, and treated with different concentrations (0-10 μM) of compound solution to be tested in triplex. Blank wells (contains medium only) and control wells (seeded cells was not treated with drug) were set. Cells were cultured for 120 hours, 40 μL Cell Titer-Glo solution (Promega, #G7573) were added to each well, incubated with shaking for 20 min in the dark, 100 μL solution was transferred from each well to a 96-well white plate (Corning, #3917), and the luminescence value was read by Biotek Synergy H1 multifunctional microplate reader.

[6] = In vivo pharmacokinetics assay in mice; settings: mouse; male ICR mice, oral gavage 10 mg/kg, plasma
Method: The in vivo pharmacokinetics of the compounds was studied.
Male ICR mice (3 in each group) were orally administered by gavage with a dose of 10 mg/kg. Plasma samples were collected before (0 h) and after administration (0.25, 0.5, 1, 2, 4, 6, 8, 24 h), and the collected samples were analyzed by LC/MS and data were collected. The collected analytical data were used to calculate the relevant pharmacokinetic parameters by Analyst v1.6.2 (AB Applied Biosystems Company, USA).

ATR kinase, sequence (Q13535 whole entry): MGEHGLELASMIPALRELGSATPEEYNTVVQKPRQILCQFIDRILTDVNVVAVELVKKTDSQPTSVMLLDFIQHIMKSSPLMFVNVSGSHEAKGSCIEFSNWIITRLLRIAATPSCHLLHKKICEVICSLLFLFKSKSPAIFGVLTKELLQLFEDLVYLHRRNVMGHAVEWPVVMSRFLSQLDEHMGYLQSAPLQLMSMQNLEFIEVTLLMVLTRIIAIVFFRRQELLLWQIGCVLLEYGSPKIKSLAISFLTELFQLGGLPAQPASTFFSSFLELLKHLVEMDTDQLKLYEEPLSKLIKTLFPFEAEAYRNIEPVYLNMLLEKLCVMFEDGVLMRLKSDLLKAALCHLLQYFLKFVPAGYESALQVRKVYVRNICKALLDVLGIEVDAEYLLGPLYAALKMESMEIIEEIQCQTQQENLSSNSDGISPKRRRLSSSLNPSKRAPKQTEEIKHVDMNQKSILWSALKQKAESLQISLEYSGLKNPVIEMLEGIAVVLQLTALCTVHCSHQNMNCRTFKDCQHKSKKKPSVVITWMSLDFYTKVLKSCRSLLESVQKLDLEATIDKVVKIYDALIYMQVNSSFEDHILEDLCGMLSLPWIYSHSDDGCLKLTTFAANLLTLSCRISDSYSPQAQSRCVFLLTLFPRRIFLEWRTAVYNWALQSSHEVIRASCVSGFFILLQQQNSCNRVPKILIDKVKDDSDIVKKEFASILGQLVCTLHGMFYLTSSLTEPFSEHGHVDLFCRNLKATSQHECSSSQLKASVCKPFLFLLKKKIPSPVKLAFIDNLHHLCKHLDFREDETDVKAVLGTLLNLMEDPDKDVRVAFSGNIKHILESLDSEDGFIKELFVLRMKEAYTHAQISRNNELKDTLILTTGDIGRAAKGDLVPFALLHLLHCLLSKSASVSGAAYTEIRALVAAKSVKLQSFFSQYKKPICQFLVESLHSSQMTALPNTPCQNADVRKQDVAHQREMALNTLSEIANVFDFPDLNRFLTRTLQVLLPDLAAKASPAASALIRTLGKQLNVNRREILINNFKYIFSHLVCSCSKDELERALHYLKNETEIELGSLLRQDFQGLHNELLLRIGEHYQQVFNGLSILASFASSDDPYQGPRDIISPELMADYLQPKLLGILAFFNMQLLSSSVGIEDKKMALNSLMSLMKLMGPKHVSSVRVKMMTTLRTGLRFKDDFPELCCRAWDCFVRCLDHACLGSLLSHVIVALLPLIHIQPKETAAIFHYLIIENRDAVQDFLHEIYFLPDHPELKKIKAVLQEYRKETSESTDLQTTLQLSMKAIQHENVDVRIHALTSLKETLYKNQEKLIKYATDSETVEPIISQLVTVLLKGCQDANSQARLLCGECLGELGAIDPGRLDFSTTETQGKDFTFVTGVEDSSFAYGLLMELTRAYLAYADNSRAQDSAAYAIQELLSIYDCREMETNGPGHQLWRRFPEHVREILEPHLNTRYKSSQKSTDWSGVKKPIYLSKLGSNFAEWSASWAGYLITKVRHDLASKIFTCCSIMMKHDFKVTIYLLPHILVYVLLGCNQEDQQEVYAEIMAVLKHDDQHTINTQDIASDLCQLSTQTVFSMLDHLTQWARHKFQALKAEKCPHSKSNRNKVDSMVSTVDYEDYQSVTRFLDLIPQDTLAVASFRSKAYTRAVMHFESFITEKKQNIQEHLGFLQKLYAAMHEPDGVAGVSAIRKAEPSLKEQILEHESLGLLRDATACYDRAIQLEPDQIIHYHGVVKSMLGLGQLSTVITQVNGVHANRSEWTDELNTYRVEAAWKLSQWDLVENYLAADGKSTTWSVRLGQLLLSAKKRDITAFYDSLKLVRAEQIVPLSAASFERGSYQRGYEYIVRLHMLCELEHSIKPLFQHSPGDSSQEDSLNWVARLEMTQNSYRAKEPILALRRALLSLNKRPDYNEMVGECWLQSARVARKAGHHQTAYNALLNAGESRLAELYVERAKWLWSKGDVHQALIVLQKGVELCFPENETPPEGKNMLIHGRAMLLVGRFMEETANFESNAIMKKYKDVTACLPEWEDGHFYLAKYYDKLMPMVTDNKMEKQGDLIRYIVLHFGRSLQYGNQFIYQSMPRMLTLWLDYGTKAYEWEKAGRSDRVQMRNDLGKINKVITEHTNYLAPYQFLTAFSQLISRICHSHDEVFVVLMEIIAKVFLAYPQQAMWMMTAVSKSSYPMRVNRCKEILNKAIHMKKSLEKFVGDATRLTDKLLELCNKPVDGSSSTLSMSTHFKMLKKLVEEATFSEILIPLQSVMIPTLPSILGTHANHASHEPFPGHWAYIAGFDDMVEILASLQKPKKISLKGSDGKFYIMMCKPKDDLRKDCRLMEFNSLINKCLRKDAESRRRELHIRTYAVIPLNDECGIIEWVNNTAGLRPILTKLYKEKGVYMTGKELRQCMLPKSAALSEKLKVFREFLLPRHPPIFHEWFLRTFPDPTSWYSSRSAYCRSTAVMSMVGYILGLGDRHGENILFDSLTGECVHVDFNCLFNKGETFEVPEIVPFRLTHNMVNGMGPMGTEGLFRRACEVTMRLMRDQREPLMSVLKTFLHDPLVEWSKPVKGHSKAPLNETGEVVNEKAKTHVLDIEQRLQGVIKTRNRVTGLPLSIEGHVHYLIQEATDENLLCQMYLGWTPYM
ATR kinase, sequence (Q8WXE1 whole entry partner): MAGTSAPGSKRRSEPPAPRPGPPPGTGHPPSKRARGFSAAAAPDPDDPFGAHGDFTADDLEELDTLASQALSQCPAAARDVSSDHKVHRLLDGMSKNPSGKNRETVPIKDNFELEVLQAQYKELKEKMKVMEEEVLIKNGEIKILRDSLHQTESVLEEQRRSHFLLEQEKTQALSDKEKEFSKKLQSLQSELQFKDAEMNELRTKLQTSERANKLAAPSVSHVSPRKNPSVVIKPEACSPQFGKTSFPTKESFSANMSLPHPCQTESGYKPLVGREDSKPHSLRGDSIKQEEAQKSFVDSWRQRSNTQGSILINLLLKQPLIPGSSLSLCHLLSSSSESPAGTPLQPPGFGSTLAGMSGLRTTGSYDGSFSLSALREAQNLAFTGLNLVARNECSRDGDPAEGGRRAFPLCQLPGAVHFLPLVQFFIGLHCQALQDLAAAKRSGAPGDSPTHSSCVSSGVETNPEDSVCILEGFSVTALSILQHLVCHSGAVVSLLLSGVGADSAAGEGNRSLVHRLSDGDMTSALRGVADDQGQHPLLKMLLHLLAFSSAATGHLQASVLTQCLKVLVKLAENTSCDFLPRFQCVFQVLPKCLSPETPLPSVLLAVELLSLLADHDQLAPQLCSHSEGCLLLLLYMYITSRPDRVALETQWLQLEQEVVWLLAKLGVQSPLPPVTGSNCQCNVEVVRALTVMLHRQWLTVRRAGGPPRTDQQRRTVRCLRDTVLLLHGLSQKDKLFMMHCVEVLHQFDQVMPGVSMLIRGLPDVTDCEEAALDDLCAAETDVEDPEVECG

SMILES	half-life at 2 nM [1]	IC50 [2]	half-life at 2 nM [3]	IC50 ([4]; Homo sapiens, MV4-11, 120 h)	IC50 ([5]; Homo sapiens)	AUC [6]	Cmax [6]	Tmax [6]	half-life [6]	IC50 ([4]; 120 hours)	IC50 [5]
Cc1nn(C2CCNCC2)c(C(F)(F)F)c1-c1cc(N2CCOC[C@H]2C)nc(-c2ccnc3[nH]ccc23)n1 [Compound D1]	5.63 h	5 nM	1.03 h	120 nM	260 nM						
Cc1nn(C2CCNCC2)c(C(F)(F)F)c1-c1cc(N2CCOC[C@H]2C)nc(-c2cccc3[nH]ccc23)n1 [Compound D17]	5.05 h	1 nM	2.83 h	140 nM	230 nM						
CNc1nc2ccccc2n1-c1nc(-c2c(C)nn(C3CCNCC3)c2C(F)(F)F)cc(N2CCOC[C@H]2C)n1 [Compound D24]	3.38 h		1.83 h	80 nM	120 nM	5450 ng·h/mL	467 ng/mL	5.3 h	3.1 h		
Cc1nn(C2CCNCC2)c(C(F)(F)F)c1-c1cc(N2CCOC[C@H]2C)nc(-c2cc(F)cc3[nH]ccc23)n1 [Compound D28]		< 1 nM		230 nM	280 nM	2160 ng·h/mL	199 ng/mL	4.7 h	3.9 h		
CNc1nc2ccccc2n1-c1nc(-c2c(C)nn(C3CCNCC3)c2C(F)(F)F)cc(C23CCOCC2C3)n1 (stereo not shown) [Compound D48]		2 nM								200 nM	550 nM
Cc1nn(C2CCNCC2)c(C(F)(F)F)c1-c1cc(C23CCOCC2C3)nc(-c2cc(F)cc3[nH]ccc23)n1 (stereo not shown) [Compound D49]		2 nM								550 nM	500 nM
CNc1nc2cc(F)ccc2n1-c1nc(-c2c(C)nn(CC3(C)COC3)c2C(F)(F)F)cc(N2CCOC[C@H]2C)n1 [Compound D51]		32 nM								660 nM	680 nM
Cc1nn(C[C@@H]2CCCN2)c(C(F)(F)F)c1-c1cc(N2CCOC[C@H]2C)nc(-c2cc(F)cc3[nH]ccc23)n1 [Compound D52]		2 nM								590 nM	370 nM
Cc1nn(C[C@H]2CCCN2)c(C(F)(F)F)c1-c1cc(N2CCOC[C@H]2C)nc(-c2cc(F)cc3[nH]ccc23)n1 [Compound D53]		4 nM								620 nM	710 nM
Cc1nn([C@H]2CCNCC2(F)F)c(C)c1-c1cc(N2CCOC[C@H]2C)nc(-c2cc(F)cc3[nH]ccc23)n1 [Compound D54a]		4 nM		90 nM	180 nM						
Cc1nn([C@@H]2CCNCC2(F)F)c(C)c1-c1cc(N2CCOC[C@H]2C)nc(-c2cc(F)cc3[nH]ccc23)n1 [Compound D54b]		13 nM		260 nM	440 nM						
Cc1nn(C(=O)N2CCNCC2)c(C)c1-c1cc(N2CCOC[C@H]2C)nc(-c2cc(F)cc3[nH]ccc23)n1 [Compound D55]		3 nM								220 nM	190 nM
CNc1nc2ccccc2n1-c1nc(-c2c(C(F)(F)F)nn(C3CCNCC3)c2C)cc(N2CCOC[C@H]2C)n1 [Compound D56]		9 nM								320 nM	440 nM
Cc1nn(C2CCNCC2(F)F)c(C)c1-c1cc(N2CCOC[C@H]2C)nc(-c2ccnc3[nH]ccc23)n1 (stereo partly shown) [Compound D57]		16 nM								220 nM	410 nM
